What is called IC50 is the concentration at which inhibition is half-maximal.

SMILES strings stand for the structures. Values joined by “and” are separate entries in the source; they are usually repeats but may differ in a detail not shown here. Equal values may be shown once.

The target of experiment [1] is T1, IDO1 enzyme (Homo sapiens, UniProt P14902).
T1 construct: purchased Netherlands Translational Research Center B.V. NTRC-hIDO-1K
The experiment can be described thus: IDO1 enzyme inhibition assay (hIDO assay kit, NFK-green). The following applies: IDO1 enzyme 25 nM, tryptophan 100 μM, top concentration 30 μM; read-out: IDO1 Biochemical assay IC50. The method, then: The effect of compounds on IDO1 enzymatic activity was assessed by use of a hIDO assay kit (Netherlands Translational Research Center B.V., Cat #NTRC-hIDO-1K). IDO1 enzyme and tryptophan substrate are diluted in assay buffer. Compounds are tested at 8 consecutive 3-fold dilutions starting from 30 μM. 267 nL of compound is added per well of a 384-well plate followed by addition of 10 μL of assay buffer. IDO1 enzyme is added at a final concentration of 25 nM and pre-incubated for 30 min at room temperature in the dark. Tryptophan substrate solution is then added at final concentration of 100 μM to all wells and the plate incubated for 60 min at RT in the dark. Finally NFK-green reagent is added at ⅕ of total reaction volume and incubated for 4 h at RT in the dark. After incubation fluorescence is measured at Ex405 nm-Em535 nm using EnVision plate reader.
(§1) IC50 values are determined using GraphPad Prism software 5.04 for Windows by plotting percent of inhibition against log 10 concentrations of compounds using a four-parametric sigmoidal curve with a variable slope.

Experiment [2] deals with SK-OV-3 cells. The experiment can be described thus: Effect of compounds on tryptophan catabolism in SK-OV-3 cell line (inhibition of kynurenine production, LC-MS/MS). The following applies: Homo sapiens, SK-OV-3, 24 h, SK-OV-3 cell line, 24 h incubation, kynurenine in supernatant by LC-MS/MS; read-out: IC50 Ranges (ic50 values for inhibition of Kynurenine production). The format is cell-based. Summed up: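 Kynurenine in supernatants quantified by LC-MS/MS after 24 h compound exposure (37 °C; top 30 μM, eight 3-fold steps, duplicate) in DMEM F-12 containing 6 mg/mL L-tryptophan. Cells pre-plated overnight in McCoy's 5A with 10% FBS. Viability checked in parallel by ATP luminescence.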

For experiment [3], the target named is T2, TDO2 enzyme (Homo sapiens, UniProt P48775).
T2 construct: purchased Netherlands Translational Research Center B.V. NTRC-hTDO-1K
The experiment can be described thus: TDO2 enzyme inhibition assay (hTDO2 assay kit, NFK-green). To be noted: TDO2 enzyme 50 nM, tryptophan 200 μM, top concentration 30 μM; read-out: TDO2 Biochemical assay IC50. The method, then:
The effect of compounds on TDO2 enzymatic activity was assess by use of an hTDO2 assay kit (Netherlands Translational Research Center B.V., Cat #NTRC-hTDO-1K). TDO2 enzyme and tryptophan substrate are diluted in assay buffer. Compounds are tested at 8 consecutive 3-fold dilutions starting from 30 μM. 267 nL of compound is added per well of a 384-well plate followed by addition of 10 μL of assay buffer. TDO2 enzyme is added at a final concentration of 50 nM and pre-incubated for 60 min at room temperature in the dark. Tryptophan substrate solution is then added at final concentration of 200 μM to all wells and the plate incubated for 15 min at RT in the dark. Finally NFK-green reagent is added at ⅕ of total reaction volume and incubated for 4 h at RT in the dark. After incubation fluorescence is measured at Ex405 nm-Em535 nm using EnVision plate reader.
as §1

T1 sequence (P14902 whole entry): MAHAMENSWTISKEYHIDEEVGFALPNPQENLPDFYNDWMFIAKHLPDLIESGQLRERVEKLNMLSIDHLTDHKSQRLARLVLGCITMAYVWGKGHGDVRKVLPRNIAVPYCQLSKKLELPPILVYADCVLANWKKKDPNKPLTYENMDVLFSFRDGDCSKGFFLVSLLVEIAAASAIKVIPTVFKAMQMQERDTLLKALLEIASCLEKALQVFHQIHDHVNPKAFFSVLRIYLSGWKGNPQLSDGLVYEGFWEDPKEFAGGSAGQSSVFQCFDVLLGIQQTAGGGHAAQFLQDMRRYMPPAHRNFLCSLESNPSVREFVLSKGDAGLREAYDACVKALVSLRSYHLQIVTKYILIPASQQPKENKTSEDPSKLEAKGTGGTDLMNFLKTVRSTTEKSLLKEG
T2 sequence (P48775 whole entry): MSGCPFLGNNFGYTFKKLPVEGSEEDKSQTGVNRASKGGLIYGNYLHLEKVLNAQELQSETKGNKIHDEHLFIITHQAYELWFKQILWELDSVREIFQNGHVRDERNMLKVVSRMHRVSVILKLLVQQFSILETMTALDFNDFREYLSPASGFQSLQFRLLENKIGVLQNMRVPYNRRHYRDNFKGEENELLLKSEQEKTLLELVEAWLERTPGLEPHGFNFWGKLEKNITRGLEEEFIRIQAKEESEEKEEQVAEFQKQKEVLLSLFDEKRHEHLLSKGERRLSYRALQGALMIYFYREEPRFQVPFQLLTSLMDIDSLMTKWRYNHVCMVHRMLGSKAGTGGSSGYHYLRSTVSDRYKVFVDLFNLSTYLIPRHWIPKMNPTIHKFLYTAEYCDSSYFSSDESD

Take `N#Cc1ccc(NC(=O)N(Cc2cn3ccsc3n2)C2CCC2)cc1` [Compound 270, 3-(4-cyanophenyl)-1-cyclobutyl-1-(imidazo[2,1-b]thiazol-6-ylmethyl)urea]: the IC50 is > 30 µM in experiment [1] and 0.5 to 1 µM in experiment [2].
Taken in the same sequence, the figures for `Cc1ccc(CN(C(=O)Nc2ccc(C#N)cc2)c2ccnn2C)o1` [Compound 215, 3-(4-cyanophenyl)-1-[(5-methyl-2-furyl)methyl]-1-(2-methylpyrazol-3-yl)urea] were > 30 µM and > 5 µM.
Taken in the same sequence, the figures for `Cc1ccc(CN(C(=O)Nc2ccc(Cl)cc2)c2ccnn2C)o1` [Compound 220, 3-(4-chlorophenyl)-1-[(5-methyl-2-furyl)methyl]-1-(2-methylpyrazol-3-yl)urea] were > 30 µM and > 5 µM.
In the case of `Cc1ccc(CN(C(=O)Nc2ccc(C#CCO)cc2)C2CCCC2)o1` [Compound 111, 1-cyclopentyl-3-[4-(3-hydroxyprop-1-ynyl)phenyl]-1-[(5-methyl-2-furyl)methyl]urea], the IC50 in experiment [1] was > 30 µM; in experiment [3], 4.8 µM and 2.2 µM; in experiment [2], < 0.1 µM.
For the compound `O=C(Nc1ccc(Cl)cc1)N(Cc1cc2ccccc2o1)C1CCCC1` [Compound 130, 1-(benzofuran-2-ylmethyl)-3-(4-chlorophenyl)-1-cyclopentyl-urea], the concentration for half-maximal inhibition (IC50) was > 30 µM in experiment [3] and < 0.1 µM in experiment [2].
With `Cc1ccc(CN(C(=O)Nc2ccc(C3=CCN(C(=O)OC(C)(C)C)C3)cc2)C2CCCC2)o1` [Compound 158, tert-butyl 3-[4-[[cyclopentyl-[(5-methyl-2-furyl)methyl]carbamoyl]amino]phenyl]-2,5-dihydropyrrole-1-carboxylate], the IC50 was > 30 µM in experiment [1], 6.4 µM in experiment [3] and 0.5 to 1 µM in experiment [2].
Consider `CCc1ccc(NC(=O)N(Cc2cccs2)C2CCCC2)cc1` [Compound 3, 1-cyclopentyl-3-(4-ethylphenyl)-1-(2-thienylmethyl)urea], for which the IC50 in experiment [1] was > 30 µM; in experiment [3] it was > 30 µM; in experiment [2] it was 0.1 to 0.5 µM.
Consider `Cc1ccc(C(C)N(C(=O)Nc2ccc(Cl)cc2)C2CCCC2)o1` (racemic) [Compound 185, 3-(4-chlorophenyl)-1-cyclopentyl-1-[1-(5-methyl-2-furyl)ethyl]urea], for which the IC50 in experiment [3] was > 30 µM; in experiment [2], < 0.1 µM.
Consider `CCc1ccc(NC(=O)N(Cc2ccccn2)C2CCCCC2)cc1` [Compound 21, 1-cyclohexyl-3-(4-ethylphenyl)-1-(2-pyridylmethyl)urea], for which the results for the IC50 in experiment [3] and in experiment [2] were > 30 µM and 1 to 5 µM, respectively.
As for `O=C(Nc1ccc(Cl)cc1)N(Cc1cn2ccsc2n1)C1CCC1` [Compound 269, 3-(4-chlorophenyl)-1-cyclobutyl-1-(imidazo[2,1-b]thiazol-6-ylmethyl)urea], the IC50 in experiment [1] was > 30 µM; in experiment [2] it was 0.1 to 0.5 µM.
Take `COCC#Cc1ccc(NC(=O)N(Cc2ccc(C)o2)c2cnoc2C)cc1` [Compound 279, 3-[4-(3-methoxyprop-1-ynyl)phenyl]-1-[(5-methyl-2-furyl)methyl]-1-(5-methylisoxazol-4-yl)urea]: the IC50 in experiment [1] is > 30 µM; in experiment [2] it was < 0.1 µM.
Take `Cc1ccc(CN(C(=O)Nc2ccc(-c3cnoc3)cc2)C2CCCC2)o1` [Compound 105, 1-cyclopentyl-3-(4-isoxazol-4-ylphenyl)-1-[(5-methyl-2-furyl)methyl]urea]: the IC50 was > 30 µM in experiment [3] and 0.1 to 0.5 µM in experiment [2].
`Cc1ccc(CN(C(=O)Nc2ccc(Cl)nc2)C2CCCC2)o1` [Compound 92, 3-(6-chloro-3-pyridyl)-1-cyclopentyl-1-[(5-methyl-2-furyl)methyl]urea]: the IC50 was > 30 µM in experiment [3] and < 0.1 µM in experiment [2].
For `N#Cc1ccc(NC(=O)N(Cc2ccc3ncsc3c2)C2CCC2)cc1` [Compound 213, 1-(1,3-benzothiazol-6-ylmethyl)-3-(4-cyanophenyl)-1-cyclobutyl-urea], the half-inhibitory concentration (IC50) in experiment [1] was > 30 µM; in experiment [2] it was < 0.1 µM.
Consider `Cc1ccc(CN(C(=O)Nc2ccc(N3CCOCC3)cc2)C2CCCC2)o1` [Compound 123, 1-cyclopentyl-1-[(5-methyl-2-furyl)methyl]-3-(4-morpholinophenyl)urea], for which the IC50 in experiment [3] was > 30 µM; in experiment [2] it was > 5 µM.
As to `Cc1ccc(CN(C(=O)Nc2ccc(C#N)cc2)c2cnoc2C)o1` [Compound 257, 3-(4-cyanophenyl)-1-[(5-methyl-2-furyl)methyl]-1-(5-methylisoxazol-4-yl)urea], the IC50 was > 30 µM in experiment [1] and < 0.1 µM in experiment [2].
`COCC#Cc1ccc(NC(=O)N(Cc2ccc(C)o2)C2CCCC2)cc1` [Compound 162, 1-cyclopentyl-3-[4-(3-methoxyprop-1-ynyl)phenyl]-1-[(5-methyl-2-furyl)methyl]urea]: the IC50 is > 30 µM in experiment [1], > 30 µM in experiment [3] and < 0.1 µM in experiment [2].
As to `Cc1ccc(CN(C(=O)Nc2ccc(Cl)cc2)c2conc2C)o1` [Compound 277, 3-(4-chlorophenyl)-1-[(5-methyl-2-furyl)methyl]-1-(3-methylisoxazol-4-yl)urea], the IC50 is > 30 µM in experiment [1] and < 0.1 µM in experiment [2].
For the compound `Cc1ccc(CN(C(=O)Nc2ccc(C#CCN)cc2)C2CCCC2)o1` [Compound 110], the IC50 in experiment [3] is > 30 µM; in experiment [2], 0.1 to 0.5 µM.
For the compound `Cc1ccc(CN(C(=O)Nc2ccc(Cl)cc2)c2cnoc2C)o1` [Compound 256, 3-(4-chlorophenyl)-1-[(5-methyl-2-furyl)methyl]-1-(5-methylisoxazol-4-yl)urea], the IC50 in experiment [1] was > 30 µM; in experiment [2] it was < 0.1 µM.
As for `Cc1ccc(CN(C(=O)Nc2ccc(C#CC(C)(C)O)cc2)C2CCCC2)o1` [Compound 109, 1-cyclopentyl-3-[4-(3-hydroxy-3-methyl-but-1-ynyl)phenyl]-1-[(5-methyl-2-furyl)methyl]urea], the half-inhibitory concentration (IC50) in experiment [1] was > 30 µM; in experiment [3] it was 6 µM; in experiment [2], 1 to 5 µM.
As to `Cc1ccc(CN(C(=O)Nc2ccc(F)c(O)c2)C2CCCC2)o1` [Compound 104, 1-cyclopentyl-3-(4-fluoro-3-hydroxy-phenyl)-1-[(5-methyl-2-furyl)methyl]urea], the IC50 in experiment [3] is > 30 µM; in experiment [2], > 5 µM.
In the case of `O=C(Nc1ccccc1)N(Cc1ccncc1)C1CCCC1` [Compound 74, 1-cyclopentyl-3-phenyl-1-(4-pyridylmethyl)urea], the values for the IC50 in experiment [3] and in experiment [2] were > 30 µM and > 5 µM, respectively.
With `CC#Cc1ccc(NC(=O)N(Cc2ccc(C)o2)C2CCCC2)cc1` [Compound 154], the IC50 in experiment [1] is > 30 µM; in experiment [3], > 30 µM; in experiment [2], < 0.1 µM.
Take `Cn1nccc1N(Cc1ccc2ncsc2c1)C(=O)Nc1ccc(C#N)cc1` [Compound 276, 1-(1,3-benzothiazol-6-ylmethyl)-3-(4-cyanophenyl)-1-(2-methyl-iH-pyrazol-3-yl) urea]: the IC50 in experiment [1] was > 30 µM; in experiment [2], 1 to 5 µM.

For the origin of these results see patent US20210238139A1, “MODULATORS OF TRYPTOPHAN CATABOLISM” (E-Therapeutics PLC, priority 2018, published 2021).
